What was measured:
[1] = tested on: DDC intoxicated mice; experiment: Long term (10 weeks) DDC intoxication, liver histology (cell ballooning, Mallory bodies); conditions: then 1 week without DDC with two injections of MitoQ
Experimental: Furthermore, single-label immunohistochemistry or double-label immunoflourescence microscopy is performed to detect MBs in tested animals.
In long term experiments by using mice intoxicated with DDC (for 8-10 weeks) the presence (or absence) of cell ballooning and/or Mallory bodies (MBs) in liver samples of treated animals is determined and compared to the control groups of animals.
In another set of experiments, after 10 weeks of DDC intoxication tested animals receive i.p. injections of MitoQ (1.25 mg/kg) twice within subsequent 7 days (day 1 and day 4 of the corresponding week), and are analysed by routine histology (standard haematoxylin/eosin staining according to Luna L. G., 1968, Manual of Histologic staining methods of the Armed Forces Institute of Pathology, 3rd edition. McGraw Hill, New York).

[2] = tested on: human cell lines intoxicated with DDC or BSO; experiment: ROS formation in cell lines intoxicated with DDC or BSO; format: cell-based; conditions: simultaneous treatment at concentrations corresponding to EC50
Description: Another simple set of experiments employing hepatoma cell lines (e.g. HepG2 or Hep3B), the SNU-398 hepatocellular carcinoma-derived cell line (ATCC No. CRL-2233, LGC Promochem, Germany), the HUH-7 human carcinoma-derived cell line (Japanese collection of Research Biosources JCRB 0403) or the Tib-73 mouse embryonic liver cell line (ATCC TIB 73=BNL CL2 derived from BAL/c mouse, MD, USA) allows measurement of ROS production in these cells upon DDC intoxication.
To determine ROS production in for example hepatoma cell lines a standard experimental protocol according to Example 8 is applied. Tested hepatoma cells are grown in 96-well plates in culture medium (DMEM supplemented with 10% FCS, Gibco) to 80% confluency, subsequently washed with HBSS and incubated in the dark with DHE (10-50 μM) for 10 minutes at 37° C. Cells are then washed twice with Hank's balanced salt solution (HBSS, Gibco) to remove excess dye. Fluorescence is monitored in a fluorescence microscope (Olympus, Hamburg, Germany).
Alternatively, the generation of ROS is measured by using the fluoroprobe 5-(and-6)-chloromethyl-2′,7′-dichlorodihydrofluorescein diacetate acetyl ester (CM-H2DCFDA, Molecular Probes, Goettingen, Germany) which is converted to fluorescent dichlorofluorescien (DCF; Djordjevic T. et al., 2004, Antioxidants & Redox Signaling, 6: 713-720). To determine DCF fluorescence in a microplate reader (Tecan, Crailsheim, Germany), cells (e.g. HepG2, Hep3B or SNU-398) are grown in 96-well plates to 80% confluency. […] After several washes with HBSS to remove excess dye, fluorescence is monitored by using 480 nm excitation and 540 nm emission wavelength. DCF fluorescence is standardized to the number of viable cells using the Alamar Blue test according to the manufacturer's instructions (Biosource, Nivelles, Belgium). […] The absorbance is then measured at the wavelength of 580 μm.

[3] = tested on: DDC intoxicated mice; experiment: Short term (3 days) DDC intoxication, liver histology (H&E); conditions: DDC 3 days
Experimental: Liver samples prepared according to Example 1 are used for simple histologic staining such as with haematoxylin and eosin (Luna L. G., 1968, Manual of Histologic staining methods of the Armed Forces Institute of Pathology, 3rd edition. McGraw Hill, New York). Furthermore, single-label immunohistochemistry or double-label immunoflourescence microscopy is performed to detect MBs in tested animals.
In another set of experiments 3 to 12 mg/kg of MitoQ dissolved in 1% of DMSO in PBS is given intraperitoneally simultaneously to DDC intoxicated mice for 3 days and compared to control animals (positive control group represents DDC intoxicated mice whereas negative control represents non DDC intoxicated but vehicle injected animals).

[4] = tested on: fatty acid binding protein (FABP); experiment: Western blot of fatty acid binding protein in DDC intoxicated mice; format: in vivo, mouse; conditions: MitoQ treatment of DDC intoxicated animals
Experimental: The protein expression level(s) of fatty acid binding protein (FABP) representing a sensitive marker for hepatocyte damage (Monbaliu D . et al., 2005, Transplant Proc. 37(1):413-416) is determined.

[5] = tested on: DDC intoxicated mice; experiment: Tocopherol quinone content in isolated mouse liver mitochondria; format: in vivo; conditions: DDC intoxicated mice with or without MitoQ
Experimental: In order to evaluate oxidative stress in control versus DDC-intoxicated mice with or without treatment by using antioxidants according to the invention, tocopherol quinone (TQ) content (Gille L. et al., 2004, Biochemic. Pharmacology, 68: 373-381) in isolated liver mitochondria (all tested animal groups prepared according to protocols in Example 3) is performed. The mouse liver mitochondria are prepared according to modified protocol from Staniek K. and Nohl H., 1999, Biochem. et Biophys. Acta, 1413: 70-80; Mela L. and Sietz S., 1979, Methods in Enzymology, Academic Press Inc.: 39-46, and TQ content is normalized to several parameters including protein and cytochrome concentrations and activity tests of complex I (NADH dehydrogenase), complex II (succinate dehydrogenase), complex III (cytochrome bcl) and complex IV (cytochrome oxidase).
A method for rat heart mitochondria (Staniek K. and Nohl H., 1999, Biochem. et Biophys. Acta, 1413: 70-80; Mela L. and Sietz S., 1979, Methods in Enzymology, Academic Press Inc.: 39-46) is adapted for mouse liver (ca. 10% weight compared to rat liver) isolated from various animal groups according to Example 3. The isolation of liver is performed at 4° C. […] The protein concentration is measured with the Biuret method (BSA as standard, at least […] protein needed for double determination) with expected yield of 3 to 6 mg. […]

[6] = tested on: DDC- or GF intoxicated mice; experiment: Toxic memory effect upon reintoxication with DDC or GF after recovery; format: in vivo, mouse; conditions: 10 weeks DDC or GF, 4 weeks recovery, reexposure 24 to 72 hours with simultaneous treatment
Description: Mouse livers respond to DDC- or GF intoxication first with ballooning of hepatocytes and formation of a denser keratin IF network. After around 6 weeks of intoxication, ballooned hepatocytes show a reduced density of the keratin IF and early MBs can be observed as fine granules associated with the keratin IF network. Continuation of intoxication leads to the appearance of large MBs typically located in the perinuclear cytoplasmic region. […] Upon cessation of intoxication, MBs disappear within several weeks. At 4 weeks of recovery from intoxication, there are groups of hepatocytes devoid of cytoplasmic keratin filaments but still containing small remnants of MBs at the cell periphery in association with desmosomes. If such mice are reexposed to DDC or GF numerous MBs reappear within 24 to 72 hours (Stumptner C. et al., 2001, J. Hepatol., 34: 665-675). This enhanced formation of MBs upon reintoxication was interpreted—in analogy to allergic reactions—as a toxic memory effect.
In another set of experiments, 10 week-intoxication of mice with DDC or GF is followed by 4 weeks of recovery.

[7] = tested on: mitochondria within isolated cells; conditions: in vitro; cited from earlier work
[8] = according to Jauslin M. L. et al., 2003, FASEB J.; cited from earlier work

## MitoQ
[1]
  accumulation of protoporphyrin in bile ducts: markedly reduced
[2]
  ROS formation: significant reduction in ROS formation
[3]; simultaneous MitoQ 6 mg/kg
  inflammatory cells around the portal vein: Absence of inflammatory cells
  morphology of the hepatocytes (size and morphology of nuclei, structure of cytoplasm): normal
[3]; simultaneous MitoQ in PBS/1% DMSO, 6 mg/kg
  liver architecture (strands of hepatocytes bordered by sinusoids): normal architecture again is visible
[4]
  FABP protein expression: reaches almost control mice FABP protein expression values
[5]
  tocopherol quinone (TQ) levels in liver mitochondria: elevated TQ levels in DDC intoxicated mice when compared to controls and mice treated with MitoQ
[6]
  toxic memory effect (reappearance of MBs): reduced or abolished
[7]
  accumulation by mitochondria: rapidly and selectively accumulated by mitochondria
[8]
  EC50: 0.51 nM
